Target: T1, Phenylalanine--tRNA ligase, mitochondrial (Homo sapiens, UniProt O95363)
T1 sequence (O95363 whole entry): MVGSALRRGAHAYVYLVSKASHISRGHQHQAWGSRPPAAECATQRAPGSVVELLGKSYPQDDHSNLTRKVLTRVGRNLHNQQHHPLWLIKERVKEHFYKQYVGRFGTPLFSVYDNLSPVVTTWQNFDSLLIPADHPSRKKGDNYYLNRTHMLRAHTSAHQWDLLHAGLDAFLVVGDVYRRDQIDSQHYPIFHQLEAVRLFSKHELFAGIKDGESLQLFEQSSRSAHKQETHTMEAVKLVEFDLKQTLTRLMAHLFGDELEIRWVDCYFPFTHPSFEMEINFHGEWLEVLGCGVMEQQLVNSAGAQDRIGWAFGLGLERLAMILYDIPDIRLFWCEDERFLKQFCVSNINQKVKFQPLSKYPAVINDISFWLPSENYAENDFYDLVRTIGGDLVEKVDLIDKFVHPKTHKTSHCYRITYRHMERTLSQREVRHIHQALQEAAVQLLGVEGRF
Assay: Inhibitory activity against human phenylalanyl-tRNA synthetase was determined

SMILES	IC50
COc1ccccc1N1C(=O)[C@@H]2C(c3ccccc3C)OC3(C(=O)c4ccccc4C3=O)[C@@H]2C1=O (some centres undefined)	> 100 µM
O=C1[C@H]2[C@H](c3ccccc3)NC3(Cc4ccccc4C3)[C@H]2C(=O)N1c1ccc(Cl)c(Cl)c1	> 100 µM
O=C1[C@H]2[C@@H](C(=O)N1c1ccc(Cl)c(Cl)c1)C1(Cc3ccccc3C1)N[C@H]2c1ccccc1	> 100 µM
COC(=O)C1N[C@@H](c2ccccc2)[C@H]2C(=O)N(c3ccc(Cl)c(Cl)c3)C(=O)[C@@H]12 (some centres undefined)	> 100 µM
COc1ccc(N2C(=O)[C@@H]3C(c4ccccc4)OC4(C(=O)c5ccccc5C4=O)[C@@H]3C2=O)cc1 (some centres undefined)	> 100 µM
Cc1ccc(C2OC3(C(=O)c4ccccc4C3=O)[C@@H]3C(=O)N(c4ccc5c(c4)OCO5)C(=O)[C@H]23)cc1 (some centres undefined)	> 100 µM
O=C1[C@@H]2C(c3ccc(Cl)cc3)OC3(C(=O)c4ccccc4C3=O)[C@@H]2C(=O)N1c1ccc(Cl)c(C(F)(F)F)c1 (some centres undefined)	> 100 µM
O=C(c1ccccc1)C1N[C@@H](c2ccccc2)[C@@H]2C(=O)N(c3ccc(Cl)c(Cl)c3)C(=O)[C@H]12 (some centres undefined)	> 100 µM
O=C(c1ccccc1)C1N[C@@H](c2ccccc2)[C@H]2C(=O)N(c3ccc(Cl)c(Cl)c3)C(=O)[C@@H]12 (some centres undefined)	> 100 µM
COc1ccccc1N1C(=O)C2C(c3ccccc3)OC3(C(=O)c4ccccc4C3=O)C2C1=O (centres undefined)	> 100 µM
O=C1[C@@H]2C(c3ccccc3)OC3(C(=O)c4ccccc4C3=O)[C@@H]2C(=O)N1c1ccc([N+](=O)[O-])cc1 (some centres undefined)	> 100 µM

Further lines, results first:

IC50	SMILES
> 100 µM	Cc1ccc(N2C(=O)[C@H]3[C@@H](C2=O)C2(N[C@H]3c3ccccc3)C(=O)c3ccccc3C2=O)cc1Cl
> 100 µM	O=C1C2C(c3ccccc3)OC3(C(=O)c4ccccc4C3=O)C2C(=O)N1c1ccc2c(c1)OCO2 (centres undefined)
> 100 µM	O=C1[C@H]2[C@H](c3ccccc3)NC3(C(=O)c4ccccc4C3=O)[C@H]2C(=O)N1c1ccc(Cl)c(Cl)c1
> 100 µM	Cc1ccc(N2C(=O)[C@H]3[C@H](c4ccccc4)NC4(C(=O)c5ccccc5C4=O)[C@H]3C2=O)cc1Cl
> 100 µM	Cc1ccc(N2C(=O)[C@H]3C(c4ccccc4)OC4(C(=O)c5ccccc5C4=O)[C@H]3C2=O)cc1Cl (some centres undefined)
> 100 µM	Cc1ccc(N2C(=O)[C@@H]3C(c4ccccc4)OC4(C(=O)c5ccccc5C4=O)[C@@H]3C2=O)cc1Cl (some centres undefined)
> 100 µM	O=C1[C@H]2[C@@H](C(=O)N1c1ccc(Cl)c(Cl)c1)C1(N[C@H]2c2ccccc2)C(=O)c2ccccc2C1=O
> 100 µM	O=C1[C@@H]2C(c3ccccc3)OC3(C(=O)c4ccccc4C3=O)[C@@H]2C(=O)N1c1ccc(Cl)c(C(F)(F)F)c1 (some centres undefined)

Reference: ChEMBL document CHEMBL1147613, “A series of spirocyclic analogues as potent inhibitors of bacterial phenylalanyl-tRNA synthetases” (Bioorg Med Chem Lett, 2004)
